Measurements reported in patent US5589486A, “N-hydroxyalkyl-substituted 1,2,3,6-tetrahydro-pyridine and piperidine derivatives” (Richter Gedeon Vegyeszeti Gyar Rt., priority 1991, dated 1996).
Where two headings read alike, the source gives them in different places.

Columns and labels:
[1] = Acute toxicity study in mice; design: species or system mice (OF-1, either sex); settings: mouse, in vivo, po, maximal dose 1000 mg/kg
Protocol: OF-1 mice of either sex weighing 19-21 g were used. The test compound was administered through a catheter inserted into the stomach. A series of solutions was prepared, the concentrations were chosen to give a constant dosage volume of 0.1 ml/10 g. The observation time after the treatment was 72 hours. The LD50 value was calculated according to Litchfield and Wilcoxon from six dose responses (maximal dose 1000 mg/kg p.o., n=10).

[2] = test system: hypoxia; test: Antihypoxic effect, cytotoxic and hypobaric hypoxia tests taken together; assay type: in vivo, mice; spontaneously hypertensive (SH) rats; settings: comparison of effects between tests, in words
Protocol: (§1) Male CFLP mice (from the Hungarian stock LATI) weighing 24-26 g each and spontaneously hypertensive (SH) male rats weighing 160-180 g each, respectively were used in these investigations. The compounds to be tested were orally administered in a volume of 10 ml/kg one hour prior to starting the experiment.
After a 1-hour pretreatment, the animals were intravenously injected with 5 mg/kg of potassium cyanide. Survival time was measured as an interval lasting from the administration of potassium cyanide to the last respiratory movement. In the groups consisting of 10 animals each treated with the compounds, the animals having a survival time longer by 30% than the average survival time of the placebo-treated group were considered to be protected. The ED50 values (i.e. the doses being effective in 50% of the animals) were calculated from the percentage of the surviving animals by using probit analysis.
After a 16-hour starving and 1-hour pretreatment period, the animals were placed in a desiccator of 6 liters volume, where the pressure was decreased to 170 mmHg within 20 seconds. The survival time was registered from this time point up to the last respiratory movement of the animals. […] The ED50 values were calculated from the percentage of the animals protected by using probit analysis. […]

[3] = test system: hypobaric hypoxia in SH rats; test: Hypobaric hypoxia test (170 mmHg, survival time); assay type: in vivo, spontaneously hypertensive (SH) male rats; settings: in words
Protocol: as §1
After a 16-hour starving and 1-hour pretreatment period, the animals were placed in a desiccator of 6 liters volume, where the pressure was decreased to 170 mmHg within 20 seconds. The survival time was registered from this time point up to the last respiratory movement of the animals. Animals having a survival time longer by 30% than the average survival time of the control group were considered to be protected. The ED50 values were calculated from the percentage of the animals protected by using probit analysis.
Various forms of hypoxia were used for investigating the compounds. The functional disorganization and destruction of cells and death, respectively in otherwise healthy mice are caused by a decrease in the oxygen-saturation of haemoglobin in the hypobaric hypoxia and the inhibition of the mitochondrial respiratory enzyme in the cytotoxic hypoxia. Spontaneously hypertensive (SH) rats are more sensitive against hypoxic conditions than normotensive animals; similarly, patients suffering from hypertension have a less chance of survival after hypoxic injuries.

[4] = test system: cytotoxic hypoxia in mice; test: Cytotoxic hypoxia test (potassium cyanide i.v., survival time); assay type: in vivo, mice (male CFLP); settings: in words
[5] = 72 h observation, Litchfield and Wilcoxon, read-out: LD50

| Structure (SMILES) | LD50 at 72 h [1, 5] [mg/kg] | antihypoxic effect in the various tests of hypoxia [2] | other results |
| --- | --- | --- | --- |
| OC(CN1CC=C(c2ccccc2)CC1)c1ccc(Cc2ccc(Cl)cc2)cc1 (stereo not shown) [A, 1-[4-(4-Chlorobenzyl)phenyl]-2-(4-phenyl-1,2,3,6-tetrahydro-1-pyridyl)ethanol] | > 1000 | its effects are the same in the various tests of hypoxia |  |
| OC(CCN1CCC(c2ccccc2)CC1)c1ccc(Cc2ccc(Cl)cc2)cc1 (stereo not shown) [B, 1-[4-(4-chlorobenzyl)phenyl]-3-(4-phenyl-1-piperidyl)propanol] |  |  | LD50 at 72 h [1]: 697 mg/kg |
| OC(CCN1CC=C(c2ccc(Cl)cc2)CC1)c1ccc(Cl)cc1Cl (stereo not shown) [E, 3-[4-(4-Chlorophenyl)-1,2,3,6-tetrahydro-1-pyridyl]-1-(2,4-dichlorophenyl)propanol] | > 1000 |  |  |
| NC(=O)CN1CCCC1=O [Piracetam, 2-oxo-1-pyrrolidinylacetic acid amide, reference compound] |  | exerts its effect in the same two tests |  |
| CC[C@]12CCCN3CCc4c(n(c5ccccc45)[C@@](O)(C(=O)OC)C1)[C@@H]32 [Vincamine, (+)-14β-hydroxy-14α-methoxycarbonyl-14,15-dihydroeburnamenine] |  |  | action in hypobaric hypoxia [3]: prominent tolerance-enhancing action in hypobaric hypoxia; antihypoxic effect in cytotoxic hypoxia [4]: most pronounced in cytotoxic hypoxia |
